Reference: ChEMBL document CHEMBL4190175 (Medchemcomm, 2016)

Experiments:
[1] = molecular target: Transient receptor potential cation channel subfamily A member 1 (Homo sapiens, UniProt O75762); assay: Antagonist activity at human TRPA1 by electrophysiology assay
[2] = Fraction unbound in human plasma; assay type: ADME, cell-free
[3] = Fraction unbound in rat plasma; assay type: ADME, cell-free
[4] = molecular target: T1, Cytochrome P450 1A2 (Homo sapiens, UniProt P05177); assay: Inhibition of CYP1A2 (unknown origin); assay type: ADME
T1 sequence (P05177 whole entry): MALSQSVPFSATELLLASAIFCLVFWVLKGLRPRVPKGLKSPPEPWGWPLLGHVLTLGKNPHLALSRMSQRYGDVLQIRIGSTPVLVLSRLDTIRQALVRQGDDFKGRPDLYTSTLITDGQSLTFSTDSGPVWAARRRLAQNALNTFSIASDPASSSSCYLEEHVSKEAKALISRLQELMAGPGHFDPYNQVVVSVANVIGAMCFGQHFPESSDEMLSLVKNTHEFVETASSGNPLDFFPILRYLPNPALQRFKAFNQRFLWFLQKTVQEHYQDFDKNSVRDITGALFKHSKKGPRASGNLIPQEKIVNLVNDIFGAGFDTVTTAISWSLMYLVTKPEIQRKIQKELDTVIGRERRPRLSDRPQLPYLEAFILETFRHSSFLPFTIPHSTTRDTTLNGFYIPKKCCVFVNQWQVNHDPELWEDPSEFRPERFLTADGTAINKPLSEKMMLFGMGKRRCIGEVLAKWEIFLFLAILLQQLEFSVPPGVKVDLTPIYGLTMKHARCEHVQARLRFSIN

[5] = molecular target: Cytochrome P450 2C19 (Homo sapiens, UniProt P33261); assay: Inhibition of CYP2C19 (unknown origin); assay type: ADME
[6] = molecular target: Cytochrome P450 2D6 (Homo sapiens, UniProt P10635); assay: Inhibition of CYP2D6 (unknown origin); assay type: ADME
[7] = Volume of distribution at steady state in rat; assay type: ADME, organism-based; settings: in vivo, read-out: Vdss
[8] = Drug uptake in Sprague-Dawley rat skin dermal layer at 0.68 mg applied topically measured after 24 hrs; assay type: ADME, tissue-based, Dermis; settings: topical or ocular, read-out: Drug uptake

Sequence of Cytochrome P450 2D6 (P10635 whole entry): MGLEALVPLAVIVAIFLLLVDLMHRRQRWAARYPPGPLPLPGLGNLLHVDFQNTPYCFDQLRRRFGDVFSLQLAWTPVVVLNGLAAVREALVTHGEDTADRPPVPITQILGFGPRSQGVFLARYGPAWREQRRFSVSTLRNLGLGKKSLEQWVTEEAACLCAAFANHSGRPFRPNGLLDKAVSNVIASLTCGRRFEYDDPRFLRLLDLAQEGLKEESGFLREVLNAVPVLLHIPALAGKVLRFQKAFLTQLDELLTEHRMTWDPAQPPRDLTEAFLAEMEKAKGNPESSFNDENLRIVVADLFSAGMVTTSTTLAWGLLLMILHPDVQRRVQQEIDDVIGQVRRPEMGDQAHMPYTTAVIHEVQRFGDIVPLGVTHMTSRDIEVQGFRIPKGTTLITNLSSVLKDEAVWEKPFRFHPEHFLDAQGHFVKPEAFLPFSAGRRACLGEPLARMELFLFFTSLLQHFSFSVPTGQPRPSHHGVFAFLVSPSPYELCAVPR
Sequence of Transient receptor potential cation channel subfamily A member 1 (O75762 whole entry): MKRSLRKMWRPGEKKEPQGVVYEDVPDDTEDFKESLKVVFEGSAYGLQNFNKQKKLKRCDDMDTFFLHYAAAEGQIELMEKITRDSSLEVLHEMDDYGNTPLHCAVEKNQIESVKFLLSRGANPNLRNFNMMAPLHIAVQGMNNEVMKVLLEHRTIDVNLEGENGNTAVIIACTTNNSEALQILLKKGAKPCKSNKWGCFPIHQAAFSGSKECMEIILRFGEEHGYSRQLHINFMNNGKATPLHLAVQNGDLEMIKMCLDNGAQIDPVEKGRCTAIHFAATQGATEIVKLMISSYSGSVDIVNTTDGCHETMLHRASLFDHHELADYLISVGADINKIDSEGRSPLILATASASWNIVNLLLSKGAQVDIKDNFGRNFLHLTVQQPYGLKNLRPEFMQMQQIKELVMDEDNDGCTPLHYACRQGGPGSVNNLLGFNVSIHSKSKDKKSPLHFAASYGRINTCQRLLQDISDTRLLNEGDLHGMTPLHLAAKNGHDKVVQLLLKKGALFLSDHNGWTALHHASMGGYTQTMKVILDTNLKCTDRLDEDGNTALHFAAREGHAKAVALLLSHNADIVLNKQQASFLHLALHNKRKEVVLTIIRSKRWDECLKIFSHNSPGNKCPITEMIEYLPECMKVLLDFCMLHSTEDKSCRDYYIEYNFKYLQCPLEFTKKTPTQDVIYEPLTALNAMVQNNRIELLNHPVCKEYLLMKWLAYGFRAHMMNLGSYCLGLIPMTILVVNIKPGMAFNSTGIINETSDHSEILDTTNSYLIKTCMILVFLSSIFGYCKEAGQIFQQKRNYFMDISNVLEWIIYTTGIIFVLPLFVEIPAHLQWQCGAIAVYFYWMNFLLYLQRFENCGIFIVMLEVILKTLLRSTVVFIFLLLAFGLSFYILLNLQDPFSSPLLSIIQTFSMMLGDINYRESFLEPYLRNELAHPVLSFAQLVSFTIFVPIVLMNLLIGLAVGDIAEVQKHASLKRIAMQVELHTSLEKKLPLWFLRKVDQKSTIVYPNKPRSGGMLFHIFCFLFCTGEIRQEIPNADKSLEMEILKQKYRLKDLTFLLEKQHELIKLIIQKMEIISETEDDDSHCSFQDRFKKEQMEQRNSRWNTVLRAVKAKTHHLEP
Sequence of Cytochrome P450 2C19 (P33261 whole entry): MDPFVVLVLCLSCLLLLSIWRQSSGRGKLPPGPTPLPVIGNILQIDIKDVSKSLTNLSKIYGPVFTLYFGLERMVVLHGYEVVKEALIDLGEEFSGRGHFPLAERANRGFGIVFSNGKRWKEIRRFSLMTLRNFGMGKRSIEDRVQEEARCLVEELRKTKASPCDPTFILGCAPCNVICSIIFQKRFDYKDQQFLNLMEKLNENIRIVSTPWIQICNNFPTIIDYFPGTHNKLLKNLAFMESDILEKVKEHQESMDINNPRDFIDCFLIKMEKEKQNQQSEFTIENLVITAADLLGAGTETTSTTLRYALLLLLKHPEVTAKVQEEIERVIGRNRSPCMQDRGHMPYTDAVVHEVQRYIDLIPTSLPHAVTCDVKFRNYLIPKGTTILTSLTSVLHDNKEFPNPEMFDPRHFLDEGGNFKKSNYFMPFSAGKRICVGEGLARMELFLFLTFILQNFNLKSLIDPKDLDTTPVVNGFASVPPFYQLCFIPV

**Q.** What does the source list for `O=C(NC[C@@H](Cc1ccccc1)N1CCC(O)(C(F)(F)F)CC1)C1(c2ccc(Cl)cc2)CCCC1`?
**A.** IC50 [1]: 0.7 nM; fraction unbound [2]: 0.0011; fraction unbound [3]: 0.00057; IC50 [4]: > 30000 nM; IC50 [5]: 3150 nM; IC50 [6]: 450 nM; Vd [7]: 3.99 L/kg; concentration at 24 h [8]: 640000 ng/g
